Earlier results, collected in US10829440B2, “Antibacterial compounds and methods of making and using same” (Brown University, priority 2015, dated 2020).

Test system: LT
Conditions: cited from earlier work

In the case of `CC1=N[C@@H]2[C@@H](O)[C@H](O)[C@@H](CO)O[C@@H]2S1` [NAG-thiazoline], the “binding of LT” value is given as “weak binder”.
